Tests used:
[1] = (§1) Enzymatic Activity Assay : The activity of recombinant human PI3Kγ ((aa144-1102)-6His) and PI3Kα, β, δ (6-His(p110-p85α)) was determined by measuring the ADP level after phosphorylation of DiC8-PIP2 using a commercially available ADP-Glo™ kit from Promega. The assay was carried out in white low volume 384 well plates in a final volume of 14 μl at R.T. The assay conditions contained the following: 50 mM Tris buffer pH 7.4, 2.1 mM DTT, 3 mM MgCl2, 0.05% CHAPS, 20 μM ATP, 80 μM DiC8-PIP2 and 1.2 nM PI3Kα, β, γ or 0.6 nM PI3Kδ. Potential inhibitors were made up in DMSO and then diluted in the assay to give a final concentration of not exceeding 1% (v/v) DMSO. […] Routinely, inhibitors were pre-incubated with 3 μl of enzyme for 15 min prior to the addition of 2 μl substrate mixture for a further 60 min enzyme reaction. The phosphorylation was stopped with the addition of 3 μl ADP-Glo™ reagent (stop solution) followed by a 40 min incubation. Prior to detection 6 μl of ADP-Glo™ Kinase Detection Reagent was added and the plates were read in a micro plate reader using a Luminescence filter. All additions were followed by a short centrifugation step.
[2] = target: Phosphatidylinositol 4,5-bisphosphate 3-kinase catalytic subunit beta isoform (Homo sapiens, UniProt P42338); assay: as §1
[3] = target: T1, Phosphatidylinositol 4,5-bisphosphate 3-kinase catalytic subunit delta isoform (Homo sapiens, UniProt O00329); assay: as §1
T1 sequence (O00329 whole entry): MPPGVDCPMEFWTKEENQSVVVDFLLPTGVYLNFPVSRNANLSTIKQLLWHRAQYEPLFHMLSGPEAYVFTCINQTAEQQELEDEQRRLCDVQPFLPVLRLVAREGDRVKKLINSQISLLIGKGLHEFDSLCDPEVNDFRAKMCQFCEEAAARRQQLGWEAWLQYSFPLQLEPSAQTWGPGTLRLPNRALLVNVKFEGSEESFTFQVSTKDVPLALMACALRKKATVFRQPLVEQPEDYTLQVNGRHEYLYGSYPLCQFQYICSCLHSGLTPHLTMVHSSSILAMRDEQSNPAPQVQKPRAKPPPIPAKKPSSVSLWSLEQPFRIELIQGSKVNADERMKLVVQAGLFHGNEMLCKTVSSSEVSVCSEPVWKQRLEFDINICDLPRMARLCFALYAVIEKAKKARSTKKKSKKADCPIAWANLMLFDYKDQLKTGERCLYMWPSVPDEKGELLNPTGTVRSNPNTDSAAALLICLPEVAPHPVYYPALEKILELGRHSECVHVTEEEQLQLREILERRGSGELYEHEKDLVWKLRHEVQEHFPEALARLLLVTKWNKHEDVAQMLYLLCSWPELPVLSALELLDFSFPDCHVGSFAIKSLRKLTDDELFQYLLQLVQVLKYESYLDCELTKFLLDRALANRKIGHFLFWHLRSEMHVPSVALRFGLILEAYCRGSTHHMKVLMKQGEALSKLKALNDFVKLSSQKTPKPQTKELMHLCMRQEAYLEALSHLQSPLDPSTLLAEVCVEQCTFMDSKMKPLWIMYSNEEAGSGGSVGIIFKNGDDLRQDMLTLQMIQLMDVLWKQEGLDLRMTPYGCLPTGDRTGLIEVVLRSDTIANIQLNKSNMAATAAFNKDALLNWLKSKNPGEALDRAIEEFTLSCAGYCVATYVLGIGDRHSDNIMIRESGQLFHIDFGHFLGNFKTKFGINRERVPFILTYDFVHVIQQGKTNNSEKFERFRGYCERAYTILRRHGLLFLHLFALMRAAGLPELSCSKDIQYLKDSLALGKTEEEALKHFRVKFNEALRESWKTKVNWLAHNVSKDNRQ

[4] = target: Phosphatidylinositol 4,5-bisphosphate 3-kinase catalytic subunit alpha isoform (Homo sapiens, UniProt P42336); assay: as §1
Phosphatidylinositol 4,5-bisphosphate 3-kinase catalytic subunit alpha isoform, sequence (P42336 whole entry, canonical isoform): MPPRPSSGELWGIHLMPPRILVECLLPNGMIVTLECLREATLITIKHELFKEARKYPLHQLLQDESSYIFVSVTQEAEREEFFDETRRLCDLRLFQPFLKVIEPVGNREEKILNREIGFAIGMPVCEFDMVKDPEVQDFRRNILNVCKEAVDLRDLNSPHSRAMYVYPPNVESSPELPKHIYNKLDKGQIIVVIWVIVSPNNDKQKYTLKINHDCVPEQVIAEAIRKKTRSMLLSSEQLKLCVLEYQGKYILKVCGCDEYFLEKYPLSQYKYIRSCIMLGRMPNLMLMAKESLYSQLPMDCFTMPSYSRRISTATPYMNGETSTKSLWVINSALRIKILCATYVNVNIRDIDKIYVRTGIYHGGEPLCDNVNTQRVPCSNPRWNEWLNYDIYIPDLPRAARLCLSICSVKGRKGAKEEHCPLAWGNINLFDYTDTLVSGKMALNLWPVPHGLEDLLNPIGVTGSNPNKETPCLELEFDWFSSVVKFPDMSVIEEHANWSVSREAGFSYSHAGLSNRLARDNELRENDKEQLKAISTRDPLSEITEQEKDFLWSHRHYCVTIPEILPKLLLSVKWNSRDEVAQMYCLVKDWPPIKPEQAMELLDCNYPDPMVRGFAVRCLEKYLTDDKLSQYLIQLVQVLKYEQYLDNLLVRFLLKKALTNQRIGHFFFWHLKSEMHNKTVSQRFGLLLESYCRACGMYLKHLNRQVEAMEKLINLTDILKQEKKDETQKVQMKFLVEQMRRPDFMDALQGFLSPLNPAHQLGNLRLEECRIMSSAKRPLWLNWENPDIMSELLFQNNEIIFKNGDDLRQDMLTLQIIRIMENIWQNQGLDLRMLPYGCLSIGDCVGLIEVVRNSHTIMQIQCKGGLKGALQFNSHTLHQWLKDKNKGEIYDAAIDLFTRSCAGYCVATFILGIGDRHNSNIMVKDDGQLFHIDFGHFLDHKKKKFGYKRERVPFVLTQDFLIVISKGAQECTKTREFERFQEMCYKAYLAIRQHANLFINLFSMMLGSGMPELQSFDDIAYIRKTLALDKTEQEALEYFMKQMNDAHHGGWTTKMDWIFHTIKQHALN

Phosphatidylinositol 4,5-bisphosphate 3-kinase catalytic subunit beta isoform, sequence (P42338 whole entry, canonical isoform): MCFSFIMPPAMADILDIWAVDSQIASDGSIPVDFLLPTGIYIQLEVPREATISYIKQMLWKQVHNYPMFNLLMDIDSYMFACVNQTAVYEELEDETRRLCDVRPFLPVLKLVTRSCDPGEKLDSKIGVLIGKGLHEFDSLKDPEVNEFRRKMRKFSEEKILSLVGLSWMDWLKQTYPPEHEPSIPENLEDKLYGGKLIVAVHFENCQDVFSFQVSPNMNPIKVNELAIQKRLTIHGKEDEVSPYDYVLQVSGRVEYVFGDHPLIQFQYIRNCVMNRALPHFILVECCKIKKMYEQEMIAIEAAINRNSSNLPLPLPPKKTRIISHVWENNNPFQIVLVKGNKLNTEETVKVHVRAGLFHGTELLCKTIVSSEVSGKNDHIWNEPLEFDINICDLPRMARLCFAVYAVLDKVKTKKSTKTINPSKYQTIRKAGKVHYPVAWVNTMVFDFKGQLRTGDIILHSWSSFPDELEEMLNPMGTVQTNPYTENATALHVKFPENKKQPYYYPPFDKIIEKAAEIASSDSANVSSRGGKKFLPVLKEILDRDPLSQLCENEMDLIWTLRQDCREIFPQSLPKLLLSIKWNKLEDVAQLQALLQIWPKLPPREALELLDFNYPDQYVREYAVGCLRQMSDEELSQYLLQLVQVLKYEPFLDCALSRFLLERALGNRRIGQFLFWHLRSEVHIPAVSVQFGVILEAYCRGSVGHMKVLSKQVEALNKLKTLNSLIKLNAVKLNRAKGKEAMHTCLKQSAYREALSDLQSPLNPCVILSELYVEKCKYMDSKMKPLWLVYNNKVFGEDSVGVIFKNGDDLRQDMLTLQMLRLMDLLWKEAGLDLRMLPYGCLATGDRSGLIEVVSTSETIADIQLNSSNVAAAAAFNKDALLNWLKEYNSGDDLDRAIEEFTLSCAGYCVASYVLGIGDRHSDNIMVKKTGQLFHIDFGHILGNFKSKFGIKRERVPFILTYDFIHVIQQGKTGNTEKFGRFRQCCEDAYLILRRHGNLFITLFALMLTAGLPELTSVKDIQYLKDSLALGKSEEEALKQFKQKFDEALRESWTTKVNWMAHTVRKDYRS

Row | IC50 [1] [nM] | IC50 [2] [nM] | IC50 [3] [nM] | IC50 [4] [nM] | Structure (SMILES)
1 | 0.9 |  |  |  | Cc1nc(Nc2cccc(N3CCCC3=O)c2)sc1-c1cc2c(c(S(C)(=O)=O)c1)C(=O)N([C@@H](C)C1CC1)C2
2 |  | 459 | 2.2 | 80 | CC[C@H](C)N1Cc2cc(-c3sc(Nc4cccc(N5CCCOC5=O)n4)nc3C)cc(S(=O)(=O)NC)c2C1=O
